# Experimental data: paper PMC4529334, “Activity of second-generation ALK inhibitors against crizotinib-resistant mutants in an NPM-ALK model compared to EML4-ALK” (Cancer Medicine, 2015)
# Assays:
# [1] = system: EML4-ALK (EA WT); details: […] h, […] °C, no IL-3; ALK-dependent cell growth; stated gain
# [2] = system: T1, NPM-ALK (NA WT); test: Ba/F3 proliferation, [3H]-thymidine incorporation; format: cell-based, Homo sapiens; details: […] °C, no IL-3, ALK-dependent cell growth, stated gain
# T1 construct: NPM-ALK fusion from t(2;5)(p23;q35), pcDNA3.0, stably expressed in murine Ba/F3 cells (IL-3-independent); single fused polypeptide NPM1 N-terminal part + ALK C-terminal part with kinase domain; with Nucleophosmin
# [3] = system: T1, NPM-ALK (NA WT); test: Ba/F3 proliferation, [3H]-thymidine incorporation; format: cell-based, Homo sapiens; details: […] °C, no IL-3, ALK-dependent cell growth, parental Ba/F3 as control
# [4] = system: T2, EML4-ALK (EA WT); test: Ba/F3 proliferation, [3H]-thymidine incorporation; format: cell-based, Homo sapiens; details: […] °C, no IL-3, ALK-dependent cell growth, parental Ba/F3 as control
# T2 construct: EML4-ALK fusion (EML4 exon 6 to ALK exon 20) in pCDH-CMV-MCS-EF1-Puro, stably expressed in murine Ba/F3 cells (IL-3-independent); single fused polypeptide; with Echinoderm microtubule-associated protein-like 4
# [5] = system: NPM-ALK (NA WT); details: […] h, […] °C, no IL-3; ALK-dependent cell growth; stated gain
# Source text: Ba/F3 proliferation, [3H]-thymidine incorporation on NPM-ALK (NA WT)
# [6] = system: T1, NPM-ALK (NA WT); test: Ba/F3 proliferation, [3H]-thymidine incorporation; format: cell-based, Homo sapiens; details: […] °C, no IL-3, ALK-dependent cell growth, parental Ba/F3 as control; remark: listed apart in the source
# [7] = system: T2, EML4-ALK (EA WT); test: Ba/F3 proliferation, [3H]-thymidine incorporation; format: cell-based, Homo sapiens; details: […] °C, no IL-3, ALK-dependent cell growth, parental Ba/F3 as control; remark: listed apart in the source
# Source text: Ba/F3 proliferation, [3H]-thymidine incorporation on EML4-ALK (EA WT)
smiles,measurement,setting,value
COc1cc(N2CCC(N3CCN(C)CC3)CC2)ccc1Nc1ncc(Cl)c(Nc2ccccc2P(C)(C)=O)n1 [AP26113],IC50 (μmol/L) / AP26113,[1],0.021 µmol/L
COc1cc(N2CCC(N3CCN(C)CC3)CC2)ccc1Nc1ncnc(Nc2ccccc2S(=O)(=O)C(C)C)n1 [ASP3026],IC50 (μmol/L) / ASP3026,[2],2.763 µmol/L
same,IC50 (μmol/L) / ASP3026,[3],0.084 µmol/L
same,IC50 (μmol/L) / ASP3026,[4],0.056 µmol/L
